Experimental findings from ChEMBL document CHEMBL1201862, “PubChem BioAssay data set” (2004) are described below.

Some test systems named below: SNB-75; K562; A498; OVCAR-8; SK-MEL-2; IGROV-1; NCI-H460; LOX IMVI; HCT-116; KM12; HL-60; A549; OVCAR-3; M14; ACHN; CCRF-CEM; UACC-62; HOP-62; T47D; M19-MEL.
What all share (assay): NCI tumour cell line growth inhibition, 48 h

Structures are written as SMILES.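 Values below derive from 48-hour exposures of cells grown in 96-well plates, with endpoints linearly interpolated between the two concentrations bracketing the appropriate inhibition level. At the GI50, growth is halved.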 Calls of active or inactive are those of the source. No stated cut-off is given here; in the data, active = GI50 up to about 1.1 µM and inactive = higher.

With `CC(C)Cn1cnc2c(SCc3ccccn3)nc(N)nc21`, the GI50 in the experiment on SNB-75 is 51.9 µM (inactive); in the experiment on K562, > 100 µM (inactive); in the experiment on A498, > 100 µM (inactive); in the experiment on OVCAR-8, > 100 µM (inactive); in the experiment on SK-MEL-2, > 100 µM (inactive); in the experiment with IGROV-1, > 100 µM (inactive). Further, the GI50 in the experiment with NCI-H460, with LOX IMVI, in the experiment with HCT-116, in the experiment with KM12, in the experiment with HL-60 and with A549 was > 100 µM (inactive) in each case. For the same compound, the GI50 with OVCAR-3, in the experiment on M14, in the experiment with ACHN, with CCRF-CEM, in the experiment on UACC-62 and in the experiment with HOP-62 was > 100 µM (inactive) each time. Also, the GI50 in the experiment with T47D was 80.7 µM (inactive).
With `COc1ccc(-c2cc(-c3ccc(Nc4ccnc5cc(C(F)(F)F)ccc45)cc3)[nH]c(=O)c2C#N)c2ccccc12`, the GI50 with SNB-75 was 11.2 µM (inactive); with K562 it was > 100 µM (inactive); in the experiment with A498, > 43 µM (inactive); with OVCAR-8, > 46.3 µM (inactive); in the experiment on SK-MEL-2 it was > 56 µM (inactive); in the experiment on IGROV-1, > 100 µM (inactive). Also, the GI50 was > 100 µM (inactive) in the experiment on NCI-H460; 24.2 µM (inactive) with LOX IMVI; 17.5 µM (inactive) in the experiment with HCT-116; > 30.4 µM (inactive) in the experiment with KM12; > 100 µM (inactive) in the experiment on HL-60; > 100 µM (inactive) in the experiment on A549. The GI50 is 38.7 µM (inactive) in the experiment with OVCAR-3; > 42.7 µM (inactive) with M14; > 32.5 µM (inactive) in the experiment on ACHN; > 20.9 µM (inactive) with CCRF-CEM; 88.5 µM (inactive) with UACC-62; 11.2 µM (inactive) in the experiment on HOP-62. Further, the GI50 in the experiment on T47D was > 34 µM (inactive).
As to `CN(Cc1cnc2nc(N)nc(N)c2n1)c1ccc(C(=O)NC(CO)CCCO)cc1` (stereo unspecified), the GI50 in the experiment with SNB-75, with K562, in the experiment with A498, with OVCAR-8, with SK-MEL-2 and in the experiment on IGROV-1 was > 100 µM (inactive) throughout. Further, the GI50 in the experiment with NCI-H460, with LOX IMVI, with HCT-116, in the experiment on KM12, in the experiment with HL-60 and in the experiment on OVCAR-3 was > 100 µM (inactive) throughout. In addition, the GI50 with M14, with ACHN, with CCRF-CEM, in the experiment with UACC-62, in the experiment on HOP-62 and in the experiment with T47D was > 100 µM (inactive) each time.
On to `CC1(C)C(=O)/C(=C/c2ccccc2)C(C)(C)C1(C)C`, for which the GI50 in the experiment on SNB-75 was 46.8 µM (inactive); in the experiment with K562, 35.2 µM (inactive); in the experiment on A498, 36.1 µM (inactive); with OVCAR-8 it was > 100 µM (inactive); in the experiment on SK-MEL-2, > 43.5 µM (inactive); with IGROV-1, 60.1 µM (inactive). The GI50 in the experiment on NCI-H460 is 62.7 µM (inactive); in the experiment with LOX IMVI, 35.4 µM (inactive); in the experiment with HCT-116, 38.5 µM (inactive); in the experiment on KM12, 49.9 µM (inactive); with HL-60 it was 18.9 µM (inactive); with A549, 57.5 µM (inactive). The GI50 in the experiment with OVCAR-3 is > 39.3 µM (inactive); in the experiment with M14 it was 85.1 µM (inactive); with ACHN, 53.3 µM (inactive); in the experiment on CCRF-CEM, 28.4 µM (inactive); in the experiment with UACC-62, 54.1 µM (inactive); with HOP-62, 40.9 µM (inactive). Further, the GI50 with T47D was > 65.3 µM (inactive).
Regarding `O=C1OC(c2ccccc2)=N/C1=C/C=C/c1ccco1`, the GI50 in the experiment on K562, in the experiment with OVCAR-8, with SK-MEL-2, with IGROV-1, in the experiment with KM12 and with A549 was > 100 µM (inactive) throughout. The GI50 in the experiment on OVCAR-3, in the experiment on M14, with ACHN, with CCRF-CEM, in the experiment with UACC-62 and with M19-MEL was > 100 µM (inactive) throughout.
For `OCC1OC(n2cnc3c(/C=C(/O)c4ccccc4)ncnc32)C(O)C1O` (stereo unspecified), the GI50 in the experiment with SNB-75 is 0.7 µM (active); with K562 it was 2.83 µM (inactive); in the experiment on A498, 2.16 µM (inactive); with OVCAR-8, 2.17 µM (inactive); in the experiment on SK-MEL-2, 1.01 µM (active); in the experiment on IGROV-1, 0.927 µM (active). For the same compound, the GI50 in the experiment on NCI-H460 was 0.594 µM (active); in the experiment on LOX IMVI, 1.63 µM (inactive); in the experiment on HCT-116, 1.55 µM (inactive); in the experiment with KM12, 4.62 µM (inactive); in the experiment on HL-60 it was 0.165 µM (active); in the experiment on A549, 1.29 µM (inactive). For the same compound, the GI50 was 2.77 µM (inactive) with OVCAR-3; 0.813 µM (active) in the experiment on M14; 0.923 µM (active) in the experiment on ACHN; 0.61 µM (active) in the experiment with CCRF-CEM; 8.3 µM (inactive) in the experiment on UACC-62; 5.21 µM (inactive) in the experiment with HOP-62. Also, the GI50 with T47D was 3.03 µM (inactive).
Take `COc1ccc(C2OC(=O)c3ccc4ccccc4c32)c(C)c1` (stereo unspecified): the GI50 in the experiment on SNB-75 was 6.97 µM (inactive); in the experiment on K562 it was 3.55 µM (inactive); in the experiment with A498 it was 7.41 µM (inactive); in the experiment with OVCAR-8, 14.2 µM (inactive); in the experiment on SK-MEL-2, 2.1 µM (inactive); in the experiment with IGROV-1, 5.51 µM (inactive). For the same compound, the GI50 with NCI-H460 was 4.18 µM (inactive); in the experiment with LOX IMVI it was 7.89 µM (inactive); with HCT-116 it was 4.93 µM (inactive); in the experiment with KM12, 5.87 µM (inactive); in the experiment with HL-60, 3.69 µM (inactive); with A549 it was 6.31 µM (inactive). For the same compound, the GI50 in the experiment on OVCAR-3 was 6.44 µM (inactive); in the experiment on M14 it was 6.73 µM (inactive); with ACHN, 20.6 µM (inactive); with CCRF-CEM, 22.4 µM (inactive); in the experiment on UACC-62 it was 6.93 µM (inactive); in the experiment on HOP-62, 7.26 µM (inactive). Moreover, in the experiment on T47D, the GI50 was 7.6 µM (inactive).
As for `CC(C)=C1C(=O)C[C@]2(C)C[C@H]3O[C@]3(C)CC[C@@H]3O[C@@]3(C)CC[C@@H]12`, the GI50 is > 50 µM (inactive) with SNB-75; 44.3 µM (inactive) in the experiment with K562; > 50 µM (inactive) in the experiment on A498; > 50 µM (inactive) in the experiment on OVCAR-8; > 50 µM (inactive) with SK-MEL-2; > 50 µM (inactive) with IGROV-1. For the same compound, the GI50 was > 50 µM (inactive) with NCI-H460; 17.5 µM (inactive) in the experiment on LOX IMVI; > 50 µM (inactive) with HCT-116; > 50 µM (inactive) in the experiment with KM12; > 50 µM (inactive) in the experiment on HL-60; > 50 µM (inactive) with A549. Further, the GI50 with OVCAR-3, with M14, with ACHN, with CCRF-CEM, in the experiment with UACC-62 and in the experiment with HOP-62 was > 50 µM (inactive) in each case. The GI50 in the experiment with T47D is > 50 µM (inactive).
As to `O=C1/C(=C/c2cccc([N+](=O)[O-])c2)N=C(c2ccccc2)N1c1ccc2c(c1)Sc1cc(N3C(=O)/C(=C/c4cccc([N+](=O)[O-])c4)N=C3c3ccccc3)ccc1N2`, the GI50 with SNB-75 was 16.7 µM (inactive); in the experiment with K562 it was 27.3 µM (inactive); in the experiment with A498 it was 23.6 µM (inactive); in the experiment with OVCAR-8 it was 29.2 µM (inactive); in the experiment on SK-MEL-2 it was 20 µM (inactive); in the experiment on IGROV-1 it was 20.1 µM (inactive). The GI50 was 41.9 µM (inactive) with NCI-H460; 27 µM (inactive) in the experiment on LOX IMVI; 42.8 µM (inactive) in the experiment on HCT-116; > 100 µM (inactive) with KM12; 21.6 µM (inactive) in the experiment on HL-60; 53 µM (inactive) in the experiment with A549. Besides, the GI50 in the experiment with OVCAR-3 was 12.6 µM (inactive); in the experiment on M14, 32.9 µM (inactive); with ACHN, 30.9 µM (inactive); with CCRF-CEM it was 16.9 µM (inactive); in the experiment on UACC-62, 17 µM (inactive); in the experiment on HOP-62, 20 µM (inactive). In the experiment on T47D, the GI50 was 25.4 µM (inactive).
For `O=C1Nc2ccccc2/C1=c1\[nH]c(=O)/c(=C\c2ccc(OCc3ccccc3)cn2)[nH]c1=O`, the GI50 in the experiment on SNB-75 was 4.21 µM (inactive); with K562, 20.4 µM (inactive); in the experiment with A498, 27.3 µM (inactive); in the experiment with OVCAR-8 it was 78.7 µM (inactive); with SK-MEL-2 it was 38.2 µM (inactive); with IGROV-1 it was 47.3 µM (inactive). The GI50 in the experiment with NCI-H460 is > 100 µM (inactive); in the experiment on LOX IMVI, > 100 µM (inactive); in the experiment on HCT-116, 85.7 µM (inactive); in the experiment with KM12 it was > 100 µM (inactive); in the experiment on HL-60, 49.4 µM (inactive); in the experiment with A549, > 100 µM (inactive). The GI50 in the experiment with OVCAR-3 was > 100 µM (inactive); in the experiment on M14, 56.6 µM (inactive); in the experiment on ACHN, 33.7 µM (inactive); in the experiment on CCRF-CEM, 39.5 µM (inactive); with UACC-62 it was 67 µM (inactive); in the experiment with HOP-62 it was 20 µM (inactive). Further, in the experiment on T47D, the GI50 is > 100 µM (inactive).
Consider `Cc1cc[n+]2c(c1)-c1cc(C)cc[n+]1CC2`, for which the GI50 is > 100 µM (inactive) with SNB-75; > 100 µM (inactive) in the experiment on K562; > 100 µM (inactive) in the experiment with A498; > 66.5 µM (inactive) in the experiment on OVCAR-8; > 100 µM (inactive) in the experiment with SK-MEL-2; 51.2 µM (inactive) in the experiment with IGROV-1. Moreover, the GI50 with NCI-H460, in the experiment on LOX IMVI, with HCT-116, in the experiment on KM12, in the experiment on HL-60 and in the experiment with A549 was > 100 µM (inactive) in each case. Further, the GI50 in the experiment on OVCAR-3 is 45.2 µM (inactive); with M14, > 100 µM (inactive); in the experiment on ACHN, > 100 µM (inactive); with CCRF-CEM, > 22.7 µM (inactive); in the experiment with UACC-62, > 100 µM (inactive); in the experiment with HOP-62, > 100 µM (inactive). The GI50 in the experiment with T47D was > 100 µM (inactive).
